The values below come from US20200068890A1 (Person to Whom the Inventor is Obligated to Assign, priority 2017, published 2020).

This assay has as its system T1, A. thaliana DHDPS.
T1 construct: AtDHDPS|10|0.00008; no borders, domain or tags given
In words: DHDPS-DHDPR coupled assay, dose response inhibitor assay. Format: biochemical, Arabidopsis thaliana. The method, then:
DHDPS enzyme activity was determined using the coupled assay in a Cary 4000 UV/Vis spectrophotometer at 340 nm in 1 cm acrylic cuvettes. A master mix was prepared for each reaction as per Table 1. Reaction mixtures containing enzymes, pyruvate, buffer and NADPH were incubated at 30° C. for 12 mins before the addition of ASA to initiate the reaction. The oxidation of NADPH to NADP^+ was then monitored at 340 nm at 30° C. as a function of time. The initial rate (ΔA340·min^−1) was calculated from the slope of the linear portion of the A340 versus time profile. All experiments were carried out in triplicate. The enzyme kinetic parameters, including KM values, were determined using the Michaelis-Menten equation (Equation 1). Unless otherwise stated, all kinetic data were fitted using the built-in equations in GraphPad Prism.
To determine/C50 values for the inhibitors, A. thaliana DHDPS enzyme activity was measured using the coupled assay (detailed above) in the presence of increasing concentrations of inhibitor. The initial rate was then plotted as a function of the log 10 of the inhibitor concentration and the/C50 determined according to Equation 2.
With `COc1ccc(/C=C2\SC(=O)NC2=O)cc1` [Compound 45, (Z)-5-(4-Methoxybenzylidene)thiazolidine-2,4-dione], the IC50 came out at 70.8 µM.

`O=C(O)CN1C(=O)S/C(=C\c2ccc3ccccc3n2)C1=O` [Compound 40, 2-(2,4-Dioxo-5-(quinolin-2-ylmethylene)thiazolidin-3-yl)acetic Acid] displayed an IC50 of 110 µM.

Turning to `N#Cc1ccc(/C=C2\SC(=O)N(CC(=O)O)C2=O)cc1` [Compound 24, (Z)-2-(5-(4-Cyanobenzylidene)-2,4-dioxothiazolidin-3-yl)acetic Acid], half-maximal inhibition (IC50) was put at 79.6 µM.

Take `O=C(O)CN1C(=O)S/C(=C\c2cccs2)C1=O` [Compound 30, (Z)-2-(2,4-Dioxo-5-(thiophen-2-ylmethylene)thiazolidin-3-yl)acetic Acid]: the concentration for half-maximal inhibition (IC50) was found to be 71.6 µM.

The compound `O=C(O)CN1C(=O)S/C(=C\c2ccc(O)cc2)C1=O` [Compound 12, (Z)-2-(5-(4-Hydroxybenzylidene)-2,4-dioxothiazolidin-3-yl)acetic Acid] gave a half-maximal inhibitory concentration (IC50) of 103 µM.

The compound `O=C(O)CN1C(=O)S/C(=C\c2cccnc2)C1=O` [Compound 35, (Z)-2-(2,4-Dioxo-5-(pyridin-3-ylmethylene)thiazolidin-3-yl)acetic Acid] showed an IC50 of 138 µM.

Turning to `O=C(O)CN1C(=O)S/C(=C\c2ccsc2)C1=O` [Compound 31, (Z)-2-(2,4-Dioxo-5-(thiophen-3-ylmethylene)thiazolidin-3-yl)acetic Acid], it took 81.8 µM to reach half-maximal inhibition (IC50).

In the case of `O=C(O)CN1C(=O)S/C(=C\c2cccc(Cl)c2)C1=O` [Compound 7, (Z)-2-(5-(3-Chlorobenzylidene)-2,4-dioxothiazolidin-3-yl)acetic Acid], 121 µM corresponded to half-maximal inhibition (IC50).

`COc1ccc(/C=C2\SC(=S)N(CC(=O)O)C2=O)cc1` [Compound 43, (Z)-2-(5-(4-Methoxybenzylidene)-4-oxo-2-thioxothiazolidin-3-yl)acetic Acid] came in with an IC50 of 540 µM.

`O=C(O)CN1C(=O)S/C(=C\c2c[nH]cn2)C1=O` [Compound 32, (Z)-2-(5-((1H-Imidazol-4-yl)methylene)-2,4-dioxothiazolidin-3-yl)acetic Acid] displayed an IC50 of 94 µM.

For the compound `O=C(O)CN1C(=O)S/C(=C\c2ccc(OCc3ccccc3)cc2)C1=O` [Compound 41], the IC50 was found to be 71.4 µM.

In turn, `O=C(O)CN1C(=O)S/C(=C\c2ccccc2Cl)C1=O` [Compound 6, (Z)-2-(5-(2-Chlorobenzylidene)-2,4-dioxothiazolidin-3-yl)acetic Acid] displayed an IC50 of 137 µM.

`O=C(O)CN1C(=O)S/C(=C\c2ccc(O)cc2O)C1=O` [Compound 21, 2-(5-(2,4-Dihydroxybenzylidene)-2,4-dioxothiazolidin-3-yl)acetic Acid] showed an IC50 of 162 µM.

As to `O=C1NC(=O)/C(=C/c2ccccc2O)S1` [Compound 19, (Z)-5-(2-Hydroxybenzylidene)thiazolidine-2,4-dione], the IC50 turned out to be 125 µM.

`COc1ccc(/C=C2\SC(=O)N(CC(=O)O)C2=O)cn1` [Compound 37, (Z)-2-(5-((6-Methoxypyridin-3-yl)methylene)-2,4-dioxothiazolidin-3-yl)acetic Acid]: the IC50 stood at 46 µM.

`COc1cccc(/C=C2\SC(=O)N(CC(=O)O)C2=O)c1` [Compound 4, (Z)-2-(5-(3-Methoxybenzylidene)-2,4-dioxothiazolidin-3-yl)acetic Acid] had a 50% inhibitory concentration (IC50) of 110 µM.

In the case of `COc1cccc(/C=C2\SC(=O)N(CC(=O)O)C2=O)c1O` [Compound 16, (Z)-2-(5-(2-Hydroxy-3-methoxybenzylidene)-2,4-dioxothiazolidin-3-yl)acetic Acid], the IC50 turned out to be 127 µM.

Turning to `COc1ccc(/C=C2\SC(=O)N(Cc3nnn[nH]3)C2=O)cc1` [Compound 49, (Z)-3-((1H-Tetrazol-5-yl)methyl)-5-(4-methoxybenzylidene)thiazolidine-2,4-dione], the IC50 is 89.1 µM.

As to `O=C(O)CN1C(=O)S/C(=C\c2ccc(Br)cc2)C1=O` [Compound 9, (Z)-2-(5-(4-Bromobenzylidene)-2,4-dioxothiazolidin-3-yl)acetic Acid], the IC50 stood at 74 µM.

In turn, `O=C(O)CN1C(=O)S/C(=C\c2ccc(C(=O)O)cc2)C1=O` [Compound 25, (Z)-4-((3-(Carboxymethyl)-2,4-dioxothiazolidin-5-ylidene)methyl)benzoic Acid] displayed an IC50 of 69.8 µM.

Consider `CN(C)c1ccc(/C=C2\SC(=O)N(CC(=O)O)C2=O)cc1` [Compound 33, (Z)-2-(5-(4-(Dimethylamino)benzylidene)-2,4-dioxothiazolidin-3-yl)acetic Acid], for which the IC50 is > 500 µM.

`O=C(O)CN1C(=O)S/C(=C\c2ccccn2)C1=O` [Compound 34, (Z)-2-(2,4-Dioxo-5-(pyridin-2-ylmethylene)thiazolidin-3-yl)acetic Acid] displayed an IC50 of 80.4 µM.

Compound `O=C(O)CN1C(=O)S/C(=C\c2ccncc2)C1=O` [Compound 36, (Z)-2-(2,4-Dioxo-5-(pyridin-4-ylmethylene)thiazolidin-3-yl)acetic Acid] gave an IC50 of 90.2 µM.

As for `O=C(O)CN1C(=O)S/C(=C\c2ccc(OC(F)(F)F)cc2)C1=O` [Compound 27, (Z)-2-(2,4-Dioxo-5-(4-(trifluoromethoxy)benzylidene)thiazolidin-3-yl)acetic Acid], the IC50 was found to be 97.8 µM.

`O=C(O)CN1C(=O)S/C(=C\c2ccccc2O)C1=O` [Compound 14, (Z)-2-(5-(2-Hydroxybenzylidene)-2,4-dioxothiazolidin-3-yl)acetic Acid] registered a half-maximal inhibitory concentration (IC50) of 79.7 µM.

Compound `O=C(O)CN1C(=O)S/C(=C\c2ccc(C(F)(F)F)cc2)C1=O` [Compound 29, (Z)-2-(2,4-Dioxo-5-(4-(trifluoromethyl)benzylidene)thiazolidin-3-yl)acetic Acid] came in with an IC50 of 122 µM.

As to `COc1ccc(CC2SC(=O)N(CC(=O)O)C2=O)cc1` (stereo not shown) [Compound 52], the 50% inhibitory concentration (IC50) is > 250 µM.

The compound `CC(=O)Nc1ccc(/C=C2\SC(=O)N(CC(=O)O)C2=O)cc1` [Compound 20, (Z)-2-(5-(4-Acetamidobenzylidene)-2,4-dioxothiazolidin-3-yl)acetic Acid] gave an IC50 of 68.4 µM.

For the compound `O=C(O)CN1C(=O)S/C(=C\c2cccc3ccccc23)C1=O` [Compound 38, (Z)-2-(5-(Naphthalen-1-ylmethylene)-2,4-dioxothiazolidin-3-yl)acetic Acid], half-maximal inhibition (IC50) required 97 µM.

As for `COc1ccc(/C=C2\SC(=O)N(CCCC(=O)O)C2=O)cc1` [Compound 51, (Z)-4-(5-(4-Methoxybenzylidene)-2,4-dioxothiazolidin-3-yl)butanoic Acid], half-maximal inhibition (IC50) required 66.8 µM.

Turning to `COc1ccc(/C=C2\NC(=S)NC2=O)cc1` [Compound 47, (Z)-5-(4-Methoxybenzylidene)-2-thioxoimidazolidin-4-one], the IC50 stood at 323 µM.

Turning to `O=C(O)CN1C(=O)S/C(=C\c2cc([N+](=O)[O-])ccc2O)C1=O` [Compound 15, (Z)-2-(5-(2-Hydroxy-5-nitrobenzylidene)-2,4-dioxothiazolidin-3-yl)acetic Acid], the midpoint of inhibition, the IC50, lay at 152 µM.

With `O=C(O)CN1C(=O)S/C(=C\c2ccc(O)c(Cl)c2)C1=O` [Compound 13, (Z)-2-(5-(3-Chloro-4-hydroxybenzylidene)-2,4-dioxothiazolidin-3-yl)acetic Acid], the IC50 came to 316 µM.

In the case of `O=C(O)CN1C(=O)S/C(=C\c2ccc3ccccc3c2)C1=O` [Compound 39, (Z)-2-(5-(Naphthalen-2-ylmethylene)-2,4-dioxothiazolidin-3-yl)acetic Acid], inhibition was half-maximal at 76.1 µM (IC50).

The compound `CSc1ccc(/C=C2\SC(=O)N(CC(=O)O)C2=O)cc1` [Compound 28, (Z)-2-(5-(4-(Methylthio)benzylidene)-2,4-dioxothiazolidin-3-yl)acetic Acid] gave an IC50 of 125 µM.

Compound `COc1ccc(/C=C2\SC(=O)N(CC(=O)O)C2=O)cc1OC` [Compound 23, 2-(5-(3,4-Dimethoxybenzylidene)-2,4-dioxothiazolidin-3-yl)acetic Acid] came in with an IC50 of 116 µM.

As for `COc1cccc(/C=C2\SC(=O)N(CC(=O)O)C2=O)c1OC` [Compound 22, 2-(5-(2,3-Dimethoxybenzylidene)-2,4-dioxothiazolidin-3-yl) acetic Acid], 108 µM corresponded to half-maximal inhibition (IC50).

Turning to `COc1ccc(/C=C2\SC(=O)N(CCC(=O)O)C2=O)cc1` [Compound 50, (Z)-3-(5-(4-Methoxybenzylidene)-2,4-dioxothiazolidin-3-yl)propanoic Acid], the IC50 is > 250 µM.

Turning to `O=C(O)CN1C(=O)S/C(=C\c2ccccc2)C1=O` [Compound 2, (Z)-2-(5-Benzylidene-2,4-dioxothiazolidin-3-yl)acetic Acid], the IC50 is 80.1 µM.

On to `COc1ccc(/C=C2\SC(=S)NC2=O)cc1` [Compound 46, (Z)-5-(4-Methoxybenzylidene)-2-thioxothiazolidin-4-one], for which the IC50 was > 250 µM.

Regarding `O=C(O)CN1C(=O)S/C(=C\c2ccc(Cl)cc2)C1=O` [Compound 8, (Z)-2-(5-(4-Chlorobenzylidene)-2,4-dioxothiazolidin-3-yl)acetic Acid], the IC50 was determined as 84.3 µM.

`COc1ccc(/C=C2\SC(=N)NC2=O)cc1` [Compound 48, (Z)-2-Imino-5-(4-methoxybenzylidene)thiazolidin-4-one] returned an IC50 of 156 µM.

The compound `CCOc1ccc(/C=C2\SC(=O)N(CC(=O)O)C2=O)cc1` [Compound 26, (Z)-2-(5-(4-Ethoxybenzylidene)-2,4-dioxothiazolidin-3-yl)acetic Acid] came in with a 50% inhibitory concentration (IC50) of 71.6 µM.

By IC50 is commonly meant the midpoint of a concentration-inhibition curve. Read a high IC50 as lower potency.
